{
  "source": "patent US20100029507A1",
  "about": "“THE BIOCHIP FOR THE DETECTION OF PHOSPHORYLATION AND THE DETECTION METHOD USING THE SAME” (priority 2006, published 2010)",
  "biological_target": "cAMP-dependent protein kinase (Homo sapiens, UniProt P17612)",
  "assay": "phosphorylation of chip-fixed substrate by kinase with [γ-32P]ATP, X-ray film detection",
  "type": "biochemical",
  "conditions": "substrate spotted on aldehyde coated slide glass, 10 units cAMP-dependent protein kinase, reaction one hour, sensitized 12~24 hours",
  "protocol": "First, kemptide (Promega, Madison, Wis.) or malic enzyme-kemptide fusion protein was fixed on a slid glass as a substrate. Particularly, kemptide was dissolved in kemptide solution (10% glycerol, 60% PBS, pH 7.5) at the concentration of 0.1 mg/ml and this substrate solution was integrated on the aldehyde coated slid glass by using a microarrayer [Affymetrix 417 Arrayer (Takara Shuzo, Japan)] with leaving 300 μm distance between spots (2500/1 cm^2). The malic enzyme-kemptide prepared in Example 1 was also integrated on the slid glass with leaving 300 μm distance between spots (2500/1 cm^2). At this time, the size of each spot was 50 μm. The biochip integrated with substrate as described above was fixed in a 30° C. humid chamber for one hour. The biochip prepared in Example 2 was washed three times with washing buffer (2 mM KH2PO4, 1 mM Na2HPO4, 200 mM NaCl, 3 mM KCl, pH 7.5) and then reaction between the substrate and kinase was induced on the chip. Particularly, the chip was washed with kinase buffer (50 mM Tris-HCl, 10 mM MgCl2, pH 7.5) once and then pre-incubation was performed in the kinase buffer supplemented with 100 μM of ATP. […] The reacted biochip was sensitized on X-ray film for 12˜24 hours and then phosphorylation by kinase was measured.",
  "note": "Residues, ends and D or L forms follow the SMILES beside them.",
  "data": [
    {"compound": "CC(C)C[C@H](NC(=O)[C@H](CO)NC(=O)[C@H](C)NC(=O)[C@H](CCCNC(=N)N)NC(=O)[C@H](CCCNC(=N)N)NC(=O)[C@@H](N)CC(C)C)C(=O)NCC(=O)O", "note": "[kemptide] (H-LRRASLG-OH)", "values": [
      {"measurement": "phosphorylation by kinase (spot signal on X-ray film)", "value": "spot signals were clearly confirmed"}
    ]}
  ]
}
